Test results from US20260191829A1, “Compositions and Methods of Treating Neurological Conditions” (DRI Biosciences Corporation, priority 2022, published 2026).
“Also recorded” adds a separate entry of the source.

Tests used:
Fmr1 KO mice [1] = test: Novel object recognition test (learning and memory) in Fmr1 KO mice; assay type: in vivo, mouse; conditions: Fmr1 KO mice vs vehicle and FVB mice, daily oral treatment from P21, ACT01 25 mg/kg, FIG. 4D
Source text: (§1) The study compared learning and memory behaviors of the different drug treated and untreated (vehicle) Fmr1 KO mice with FVB mice (a background strain of the transgenic Fmr1 KO mice; “FVB” refers to the susceptibility of FVB mice to Friend leukemia virus B). Male mice (FVB.129P2-Pde6b<+> Tyr<c-ch>Fmr1<tm1Cgr>/J (Stock No: 004624 |FMR1 KO)) were used as the FXS/autism model and age-matched male mice (FVB.129P2-Pde6b<+> Tyr<c-ch>/AntJ) were used as the controls (Bernardet, M. and W. E. Crusio, Fmr1 KO mice as a possible model of autistic features. Scientific WorldJournal, 2006. 6: p. 1164-76. Hays, S. A., K. M. Huber, and J. R. Gibson, Altered neocortical rhythmic activity states in Fmr1 KO mice are due to enhanced mGluR5 signaling and involve changes in excitatory circuitry. J Neurosci, 2011. 31(40): p. 14223-34. Willemsen, R. and R. F. Kooy, Mouse models of fragile X-related disorders. Dis Model Mech, 2023. 16(2).).
Unexpected drug-combination effects on rodent learning and memory: Novel object recognition test was used to assess treatment effects of different catecholaminergic mediations (including drug combinations) on cognitive behavior, i.e., learning and memory. […]

Fmr1 KO mice [2] = test: Metabolic activities (glucose and lipid) of Fmr1 KO mice; assay type: in vivo, mouse; conditions: Fmr1 KO mice vs FVB mice; FIG. 4C
Source text: The altered metabolic activities indicated sympathetic dysregulation (i.e., catecholaminergic disequilibrium). Dopaminergic activity modulates sympathetic activation.
as §1
Such alterations indicated an excessive sympathetic activation.

In the case of “3-(phenylpropyl)-sydnonimine-N-phenylcarbamoyl [ACT01]”, the “learning and memory ability (NOR index = novel object recognition index)” value (Fmr1 KO mice [1]) was “significantly (p<0.05) improved; also recorded: positively enhance” and the “glucose and lipid metabolisms (metabolic activities)” value (Fmr1 KO mice [2]) was “normalized the glucose and lipid metabolisms; also recorded: normalized the metabolic activities”.
